The first series has as its target Nav 1.5 (Homo sapiens (Human), UniProt Q14524). Briefly: Inhibition of sodium channels, Red Membrane Potential Dye FLIPR assay, veratridine depolarization. Type of series: cell-based. Particulars: HEK-293 cells overexpressing the channel; 10 μM.
Nav 1.5, sequence (Q14524 whole entry): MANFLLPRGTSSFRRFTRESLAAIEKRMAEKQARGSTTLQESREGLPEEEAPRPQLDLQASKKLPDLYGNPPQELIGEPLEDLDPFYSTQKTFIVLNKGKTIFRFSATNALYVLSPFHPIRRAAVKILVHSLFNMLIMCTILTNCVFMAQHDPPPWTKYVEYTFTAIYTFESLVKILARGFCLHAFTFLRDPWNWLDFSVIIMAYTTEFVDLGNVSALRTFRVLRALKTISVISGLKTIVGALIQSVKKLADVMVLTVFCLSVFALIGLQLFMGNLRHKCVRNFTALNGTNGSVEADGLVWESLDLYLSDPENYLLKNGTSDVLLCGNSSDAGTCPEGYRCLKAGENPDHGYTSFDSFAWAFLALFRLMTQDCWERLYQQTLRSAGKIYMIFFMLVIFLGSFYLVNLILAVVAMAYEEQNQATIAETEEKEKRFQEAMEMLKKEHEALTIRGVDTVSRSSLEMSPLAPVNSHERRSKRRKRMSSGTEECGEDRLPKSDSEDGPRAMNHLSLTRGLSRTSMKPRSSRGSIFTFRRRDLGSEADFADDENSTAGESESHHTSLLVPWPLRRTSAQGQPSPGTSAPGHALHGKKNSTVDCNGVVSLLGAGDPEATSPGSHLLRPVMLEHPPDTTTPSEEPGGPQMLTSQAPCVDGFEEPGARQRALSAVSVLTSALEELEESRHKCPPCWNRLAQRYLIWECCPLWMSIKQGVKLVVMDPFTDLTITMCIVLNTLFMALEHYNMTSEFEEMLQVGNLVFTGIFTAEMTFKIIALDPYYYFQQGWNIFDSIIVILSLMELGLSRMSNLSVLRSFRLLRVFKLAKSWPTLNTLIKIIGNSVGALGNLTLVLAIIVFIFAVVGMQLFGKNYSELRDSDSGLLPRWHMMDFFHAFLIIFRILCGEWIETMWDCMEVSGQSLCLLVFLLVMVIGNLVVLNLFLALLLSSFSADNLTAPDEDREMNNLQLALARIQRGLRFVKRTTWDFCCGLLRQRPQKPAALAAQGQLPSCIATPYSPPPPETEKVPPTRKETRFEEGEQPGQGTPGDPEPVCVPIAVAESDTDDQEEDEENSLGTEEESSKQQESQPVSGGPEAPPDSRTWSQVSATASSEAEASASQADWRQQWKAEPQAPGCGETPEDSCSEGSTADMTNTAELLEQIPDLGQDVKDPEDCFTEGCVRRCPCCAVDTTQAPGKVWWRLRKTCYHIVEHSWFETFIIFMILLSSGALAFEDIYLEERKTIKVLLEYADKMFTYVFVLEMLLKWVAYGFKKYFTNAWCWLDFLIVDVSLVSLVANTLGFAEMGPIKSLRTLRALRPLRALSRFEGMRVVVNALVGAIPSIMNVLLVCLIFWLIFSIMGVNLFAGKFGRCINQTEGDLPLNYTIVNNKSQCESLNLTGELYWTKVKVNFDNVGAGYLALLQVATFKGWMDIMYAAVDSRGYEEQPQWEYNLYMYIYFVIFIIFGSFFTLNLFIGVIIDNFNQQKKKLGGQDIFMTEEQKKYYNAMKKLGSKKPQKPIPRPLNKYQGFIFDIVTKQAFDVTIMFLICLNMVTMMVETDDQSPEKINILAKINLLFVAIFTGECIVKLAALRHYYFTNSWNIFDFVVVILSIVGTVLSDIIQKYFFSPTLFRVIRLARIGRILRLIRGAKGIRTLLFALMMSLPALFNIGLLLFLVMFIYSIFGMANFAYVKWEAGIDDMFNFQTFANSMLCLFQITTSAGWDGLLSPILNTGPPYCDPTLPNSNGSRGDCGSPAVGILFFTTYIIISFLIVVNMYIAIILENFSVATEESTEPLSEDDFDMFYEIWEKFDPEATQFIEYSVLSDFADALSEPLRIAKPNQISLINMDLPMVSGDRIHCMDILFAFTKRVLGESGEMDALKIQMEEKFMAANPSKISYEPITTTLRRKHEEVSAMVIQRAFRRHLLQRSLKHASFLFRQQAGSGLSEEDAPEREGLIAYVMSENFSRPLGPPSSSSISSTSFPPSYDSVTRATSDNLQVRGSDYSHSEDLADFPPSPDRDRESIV
As for `Cn1nccc1-c1cc(C(F)(F)F)ccc1[C@H]1CCOc2cc(S(=O)(=O)Nc3cc(F)ccn3)ccc21` [Example 4, (S&R)—N-(4-Fluoropyridin-2-yl)-4-(2-(1-methyl-1H-pyrazol-5-yl)-4-(trifluoromethyl)phenyl)chroman-7-sulfonamide], the “Nav1.5 % inhibition @ 10 μM” value came to 57%. Regarding `Cn1nccc1-c1cc(C(F)(F)F)ccc1[C@@H]1CCOc2cc(S(=O)(=O)Nc3ccc(F)cn3)ccc21` [Example 5, (S&R)—N-(5-Fluoropyridin-2-yl)-4-(2-(1-methyl-1H-pyrazol-5-yl)-4-(trifluoromethyl)phenyl)chroman-7-sulfonamide], the “Nav1.5 % inhibition @ 10 μM” value is listed as 58%. `O=S(=O)(Nc1cccc(F)n1)c1ccc2c(c1)OCC[C@@H]2c1ccc(C(F)(F)F)cc1-c1ccc(F)cc1` [Example 50, (S&R)-4-(4′-Fluoro-5-(trifluoromethyl)-[, 1′-biphenyl]-2-yl)-N-(6-fluoropyridin-2-yl) chromane-7-sulfonamide]: the “Nav1.5 % inhibition @ 10 μM” value is 38%. As for `O=S(=O)(Nc1ncccn1)c1ccc2c(c1)OCC[C@@H]2c1ccc(C(F)(F)F)cc1N1CCOCC1` [Example 119, (S&R)-4-(2-morpholino-4-(trifluoromethyl)phenyl)-N-(pyrimidin-2-yl)chroman-7-sulfonamide], the “Nav1.5 % inhibition @ 10 μM” value is listed as 30%. Turning to `O=S(=O)(Nc1ncccn1)c1ccc2c(c1)OCC[C@@H]2c1ccc(C(F)(F)F)cc1-c1ccc(F)cn1` [Example-194, (S&R)-4-(2-(5-fluoropyridin-2-yl)-4-(trifluoromethyl)phenyl)-N-(pyrimidin-2-yl)chroman-7-sulfonamide], the “Nav1.5 % inhibition @ 10 μM” value is 65%.

Staying with this series, now noted: HEK-293 cells overexpressing the channel; read-out: Nav1.5 IC50 (bound given in μM).
By IC50 is commonly meant the concentration that inhibits the measured activity by half. With `O=S1(=O)CCN(c2cc(C(F)(F)F)ccc2[C@H]2CCOc3cc(S(=O)(=O)Nc4ncc(F)cn4)ccc32)CC1` (racemic) [Example-234, (R/S)-4-(2-(1,1-dioxidothiomorpholino)-4-(trifluoromethyl)phenyl)-N-(5-fluoropyrimidin-2-yl)chroman-7-sulfonamide], the IC50 was above 10 µM. As for `O=S1(=O)CCN(c2cc(C(F)(F)F)ccc2[C@H]2CCOc3cc(S(=O)(=O)Nc4cccc(F)n4)ccc32)CC1` (racemic) [Example-235, (R/S)-4-(2-(1,1-dioxidothiomorpholino)-4-(trifluoromethyl)phenyl)-N-(6-fluoropyridin-2-yl)chroman-7-sulfonamide], the half-maximal inhibitory concentration (IC50) was above 10 µM. With `O=S1(=O)CCN(c2cc(C(F)(F)F)ccc2[C@H]2CCOc3cc(S(=O)(=O)Nc4ccncn4)ccc32)CC1` (racemic) [Example-237, (R/S)-4-(2-(1,1-dioxidothiomorpholino)-4-(trifluoromethyl)phenyl)-N-(pyrimidin-4-yl)chromane-7-sulfonamide], the concentration for half-maximal inhibition (IC50) is above 10 µM.

Turning to `Cn1nccc1-c1cc(C(F)(F)F)ccc1[C@@H]1CCOc2cc(S(=O)(=O)Nc3cc(F)ccn3)ccc21` [Example 3, (S&R)—N-(4-Fluoropyridin-2-yl)-4-(2-(1-methyl-1H-pyrazol-5-yl)-4-(trifluoromethyl)phenyl)chroman-7-sulfonamide], the half-maximal inhibitory concentration (IC50) is above 10 µM. As for `Cn1nccc1-c1cc(C(F)(F)F)ccc1[C@@H]1CCOc2cc(S(=O)(=O)Nc3ccncn3)ccc21` [Example 9, (S&R)-4-(2-(1-Methyl-1H-pyrazol-5-yl)-4-(trifluoromethyl)phenyl)-N-(pyrimidin-4-yl) chroman-7-sulfonamide], the concentration for half-maximal inhibition (IC50) was above 10 µM.

Take `Cn1nccc1-c1cc(C(F)(F)F)ccc1[C@H]1CCOc2cc(S(=O)(=O)Nc3ccncn3)ccc21` [Example 10, (S&R)-4-(2-(1-Methyl-1H-pyrazol-5-yl)-4-(trifluoromethyl)phenyl)-N-(pyrimidin-4-yl) chroman-7-sulfonamide]: the IC50 is above 10 µM.

Turning to `Cn1nccc1-c1cc(C(F)(F)F)ccc1[C@H]1CCOc2cc(S(=O)(=O)Nc3cnccn3)ccc21` [Example 12, (S&R)-4-(2-(1-Methyl-1H-pyrazol-5-yl)-4-(trifluoromethyl)phenyl)-N-(pyrazin-2-yl) chromane-7-sulfonamide], the IC50 is above 10 µM. Regarding `O=S(=O)(Nc1ncc(F)cn1)c1ccc2c(c1)OCC[C@H]2c1ccc(C(F)(F)F)cc1-c1ccc(F)nc1` [Example 37, (S&R)-4-(2-(6-Fluoropyridin-3-yl)-4-(trifluoromethyl)phenyl)-N-(5-fluoropyrimidin-2-yl) chromane-7-sulfonamide], the IC50 is above 10 µM. Same read-out and setting: the value for `O=S(=O)(Nc1ncc(F)cn1)c1ccc2c(c1)OCC[C@@H]2c1ccc(C(F)(F)F)cc1-c1ccc(F)nc1` [Example 38, (S&R)-4-(2-(6-Fluoropyridin-3-yl)-4-(trifluoromethyl)phenyl)-N-(5-fluoropyrimidin-2-yl) chromane-7-sulfonamide] was above 10 µM; that for `O=S(=O)(Nc1ncc(F)cn1)c1ccc2c(c1)OCC[C@H]2c1ccc(C(F)(F)F)cc1-c1ccc(F)cc1` [Example 45, (S&R)-4-(4′-Fluoro-5-(trifluoromethyl)-[1,1′-biphenyl]-2-yl)-N-(5-fluoropyrimidin-2-yl) chromane-7-sulfonamide] was above 10 µM.

With `O=S(=O)(Nc1ncc(F)cn1)c1ccc2c(c1)OCC[C@@H]2c1ccc(C(F)(F)F)cc1-c1ccc(F)cc1` [Example 46, (S&R)-4-(4′-Fluoro-5-(trifluoromethyl)-[1,1′-biphenyl]-2-yl)-N-(5-fluoropyrimidin-2-yl) chromane-7-sulfonamide], the IC50 was above 10 µM. For the molecule `O=S(=O)(Nc1ccncn1)c1ccc2c(c1)OCC[C@@H]2c1ccc(C(F)(F)F)cc1-c1ccc(F)cc1` [Example 48, (S&R)-4-(4′-Fluoro-5-(trifluoromethyl)-[1,1′-biphenyl]-2-yl)-N-(pyrimidin-4-yl)chromane-7-sulfonamide], the IC50 was above 10 µM. In the case of `O=S(=O)(Nc1cccc(F)n1)c1ccc2c(c1)OCC[C@H]2c1ccc(C(F)(F)F)cc1-c1ccc(F)cc1` [Example 49, (S&R)-4-(4′-Fluoro-5-(trifluoromethyl)-[, 1′-biphenyl]-2-yl)-N-(6-fluoropyridin-2-yl) chromane-7-sulfonamide], the half-inhibitory concentration (IC50) was above 10 µM.

On to `O=S(=O)(Nc1ncccn1)c1ccc2c(c1)OCC[C@H]2c1ccc(C(F)(F)F)cc1-n1ccnn1` [Example 51, (S&R)-4-(2-(1H-1,2,3-Triazol-1-yl)-4-(trifluoromethyl)phenyl)-N-(pyrimidin-2-yl)chromane-7-sulfonamide], for which the IC50 is above 10 µM. For the molecule `O=S(=O)(Nc1ncccn1)c1ccc2c(c1)OCC[C@@H]2c1ccc(C(F)(F)F)cc1-n1ccnn1` [Example 52, (S&R)-4-(2-(1H-1,2,3-Triazol-1-yl)-4-(trifluoromethyl)phenyl)-N-(pyrimidin-2-yl)chromane-7-sulfonamide], the IC50 is above 10 µM. `O=S(=O)(Nc1ncc(F)cn1)c1ccc2c(c1)OCC[C@H]2c1ccc(C(F)(F)F)cc1-n1ccnn1` [Example 55, (S&R)-4-(2-(1H-1,2,3-Triazol-1-yl)-4-(trifluoromethyl)phenyl)-N-(5-fluoropyrimidin-2-yl) chromane-7-sulfonamide]: the IC50 is above 10 µM. On to `O=S(=O)(Nc1ncc(F)cn1)c1ccc2c(c1)OCC[C@@H]2c1ccc(C(F)(F)F)cc1-n1ccnn1` [Example 56, (S&R)-4-(2-(1H-1,2,3-Triazol-1-yl)-4-(trifluoromethyl)phenyl)-N-(5-fluoropyrimidin-2-yl) chromane-7-sulfonamide], for which the half-inhibitory concentration (IC50) is above 10 µM.

`O=S(=O)(Nc1ccncn1)c1ccc2c(c1)OCC[C@H]2c1ccc(C(F)(F)F)cc1-n1ccnn1` [Example 57, (S&R)-4-(2-(1H-1,2,3-Triazol-1-yl)-4-(trifluoromethyl)phenyl)-N-(pyrimidin-4-yl)chromane-7-sulfonamide]: the IC50 was above 10 µM. Regarding `O=S(=O)(Nc1ccncn1)c1ccc2c(c1)OCC[C@@H]2c1ccc(C(F)(F)F)cc1-n1ccnn1` [Example 58, (S&R)-4-(2-(1H-1,2,3-Triazol-1-yl)-4-(trifluoromethyl)phenyl)-N-(pyrimidin-4-yl)chromane-7-sulfonamide], the IC50 was above 10 µM. Take `O=S(=O)(Nc1cccc(F)n1)c1ccc2c(c1)OCC[C@H]2c1ccc(C(F)(F)F)cc1-n1ccnn1` [Example 59, (S&R)-4-(2-(1H-1,2,3-Triazol-1-yl)-4-(trifluoromethyl)phenyl)-N-(6-fluoropyridin-2-yl) chromane-7-sulfonamide]: the IC50 is above 10 µM. Consider `O=S(=O)(Nc1cccc(F)n1)c1ccc2c(c1)OCC[C@@H]2c1ccc(C(F)(F)F)cc1-n1ccnn1` [Example 60, (S&R)-4-(2-(1H-1,2,3-Triazol-1-yl)-4-(trifluoromethyl)phenyl)-N-(6-fluoropyridin-2-yl) chromane-7-sulfonamide], for which the IC50 is above 10 µM. Same read-out and setting: with `O=S(=O)(Nc1ncccn1)c1ccc2c(c1)OCC[C@H]2c1ccc(C(F)(F)F)cc1N1CCOCC1` [Example 118, (S&R)-4-(2-morpholino-4-(trifluoromethyl)phenyl)-N-(pyrimidin-2-yl)chroman-7-sulfonamide] the figure was above 10 µM; with `O=S(=O)(Nc1ncccn1)c1ccc2c(c1)OCC[C@H]2c1ccc(C(F)(F)F)cc1-c1ccc(F)cn1` [Example-193, (S&R)-4-(2-(5-fluoropyridin-2-yl)-4-(trifluoromethyl)phenyl)-N-(pyrimidin-2-yl)chroman-7-sulfonamide], above 10 µM; with `Cc1ccc(-c2cc(C(F)(F)F)ccc2[C@@H]2CCOc3cc(S(=O)(=O)Nc4ncccn4)ccc32)cn1` [Example-201, (S)-4-(2-(6-methylpyridin-3-yl)-4-(trifluoromethyl)phenyl)-N-(pyrimidin-2-yl)chromane-7-sulfonamide], above 10 µM.

Regarding `Cc1ccc(-c2cc(C(F)(F)F)ccc2[C@H]2CCOc3cc(S(=O)(=O)Nc4ncccn4)ccc32)cn1` [Example-202, (R)-4-(2-(6-methylpyridin-3-yl)-4-(trifluoromethyl)phenyl)-N-(pyrimidin-2-yl)chroman-7-sulfonamide], the half-maximal inhibitory concentration (IC50) is above 10 µM. As to `O=S1(=O)CCN(c2cc(C(F)(F)F)ccc2[C@H]2CCOc3cc(S(=O)(=O)Nc4ncccn4)ccc32)CC1` [Example-233, (S&R)-4-(2-(1,1-dioxidothiomorpholino)-4-(trifluoromethyl)phenyl)-N-(pyrimidin-2-yl)chroman-7-sulfonamide], the IC50 was above 10 µM.

The values above are taken from patent US10239869B2, “Sulfonamide compounds as voltage-gated sodium channel modulators” (LUPIN LIMITED, priority 2015, dated 2019).
